Assay results: patent publication US6410590B1, “Compounds having antitumor activity: process for their preparation and pharmaceutical compositions containing them” (Dr. Reddy's Research Foundation, priority 2000, dated 2002)
Read-outs that look alike come from different tables or passages of the source.

Columns and labels:
MCF-7/ADR = assay: Sulforhodamine B growth inhibition, breast panel; format: cell-based, human; details: 48 h, SRB, read-out: GROWTH INHIBITION (GI 50)
Experimental: (§1) Each test compound was screened against a battery of cell lines representing eight different types of cancer. In a typical procedure 1×10^4 cells were seeded into each well of 96-well plates in 100 μL volume of RPMI-1640 containing antibiotics and 10% FCS.
(§2) The plates were incubated at 37° C. in presence of CO2. After 24 h, test compounds were evaluated at five 10 fold dilutions ranging from 100 to 0.01 μM. To each test well 100 μL of test compound solution was added and medium with vehicle was added to control wells and the plates were further incubated. After 48 h of incubation, plates were terminated by Sulforhodamine B method.
(§3) The optical density which is proportional to protein mass, is then read by automated spectrophotometric plate readers at a wavelength of 515 nm.

U251 = assay: Sulforhodamine B growth inhibition, CNS panel; format: cell-based, human; details: SRB, read-out: GROWTH INHIBITION (GI 50)
Experimental: as §1, §2, §3

SW-620 = assay: Sulforhodamine B growth inhibition, colon panel; format: cell-based, human; details: SW-620, colon, 48 h, SRB, read-out: GROWTH INHIBITION (GI 50)
Experimental: as §1, §2, §3

H522 = assay: Sulforhodamine B growth inhibition, lung panel; format: cell-based, human; details: SRB, read-out: GROWTH INHIBITION (GI 50)
Experimental: as §1, §2, §3

M14 = assay: Sulforhodamine B growth inhibition, melanoma panel; format: cell-based, human; details: 48 h, SRB, read-out: GROWTH INHIBITION (GI 50)
Experimental: as §1, §2, §3

SKOV-3 = assay: Sulforhodamine B growth inhibition, ovarian panel; format: cell-based, human; details: SKOV-3, ovarian, 48 h, SRB, read-out: GROWTH INHIBITION (GI 50)
Experimental: as §1, §2, §3

DU145 = assay: Sulforhodamine B growth inhibition, prostate panel; format: cell-based, human; details: SRB, read-out: GROWTH INHIBITION (GI 50)
Experimental: as §1, §2, §3

A498 = assay: Sulforhodamine B growth inhibition, renal panel; format: cell-based, human; details: 48 h, SRB, read-out: GROWTH INHIBITION (GI 50)
Experimental: as §1, §2, §3

[1] = Plasma triglyceride and body weight reduction in Swiss albino mice; format: in vivo; details: for Percentage reduction TG: plasma triglyceride
Experimental: (b) Plasma triglyceride and body weight reduction in Swiss albino mice Male Swiss albino mice (SAM) were obtained from NIN and housed in DRF animal house. All these animals were maintained under 12 hour light and dark cycle at 25±1° C. Animals were given standard laboratory chow (NIN, Hyderabad, India) and water, ad libitum. SAM of 20-25 g body weight range (Oliver, P., Plancke, M. O., Marzin, D., Clavey, V., Sauzieres, J and Fruchart, J. C. Effects of fenofibrate, gemfibrozil and nicotinic acid on plasma lipoprotein levels in normal and hyperlipidemic mice. Atherosclerosis. 1988. 70: 107-114).
The test compounds were administered orally to Swiss albino mice at 0.3 to 500 mg/kg dose for 6 days. Control mice were treated with vehicle (Chremophore/DMSO/H2O; dose 10 ml/kg).
The blood samples were collected in fed state 1 hour after drug administration on 0 and 6 day of treatment. The blood was collected from the retro-orbital sinus through heparinised capillary in EDTA containing tubes. After centrifugation, plasma sample was separated for triglyceride (Wieland, O. Methods of Enzymatic analysis. Bergermeyer, H. O., Ed., 1963. 211-214; Trinder, P. Ann. Clin. Biochem. 1969. 6: 24-27). Measurement of plasma triglyceride was done using commercial kits (Dr. Reddy's Diagnostic Division, Hyderabad, India).
The formula used to measure percent reduction in blood sugar/triglycerides is given above.

HIV-1/MN = assay: Anti HIV activity, P24 antigen in infected PM-1 cells; format: cell-based; details: 96 h; for inhibition at 1 µM: Human immunodeficiency virus 1, PM1, 1 μM, read-out: Percent Inhibition
Experimental: Human CD4+ T cell line PM-1 used in the assay was cultured in RPMI-1640 medium containing 10% Fetal bovine serum, 2 g/L sodium bicarbonate, 100,000 units/L Pencillin-G and 100 mg/L streptomycin. Healthy PM-1 cells were plated on the first day in a 96 well plate at […]. After 24 h HIV-1/MN was added to the culture and incubated for 2 h for infection. Cells were washed twice with PBS to remove the virus in the culture. Different concentrations of DRF compounds ranging from 10^−4 to 10^−8 M were added to the culture and incubated for 96 h. The viability of cells was then assessed by standard MTT assay and the viral antigen P24 levels were estimated by ELSA method. Based on the MTT assay values the P 24 antigen values were corrected.
All the samples were tested in triplicates and the average was used for calculations. AZT was used as standard compound for comparison.

Human lymphocytes = assay: Lymphocyte proliferation, tritiated thymidine incorporation; format: cell-based; details: 1 μM; PHA-stimulated human lymphocytes
Experimental: Human lymphocycles were isolated from whole blood by using Ficoll Hypaque Plus (Amersham). On day one, 1 million lymphocytes were seeded into each well of 96 well plate in 100 μL volume of RPMI 1640 medium containing 10% FCS and Phytohemagglutitin A at 10 μg/ml concentration. Plates were incubated at 37° C. in CO2 incubator for 24 h. Test compounds at various concentrations were added to test wells and only medium with vehicle was added to control wells. After 48 h of incubation […] of tritiated thymidine was added to each well. After 24 h of thymidine addition the cells were harvested and the incorporated radioactivity was determined.
Stimulation index (si) was calculated using the formula, […]

KB = details: cited from earlier work
[2] = system: P388 lymphocytic leukemia; details: cited from earlier work
tumor cell lines = details: cited from earlier work
HIV-1(IIIB) = details: cited from earlier work
UACC62 = assay: Sulforhodamine B growth inhibition, melanoma panel; format: cell-based; details: Homo sapiens, UACC-62, 48 h, SRB, read-out: GROWTH INHIBITION (GI 50)
Experimental: as §1, §2, §3

3,14,19-TRIACETYL 8,17-EPOXY ANDROGRAPHOLIDE [Example-2]
GI50 (MCF-7/ADR): 5.5 µM | GI50 (U251; 48 h): 3 µM | GI50 (SW-620): 1 µM | GI50 (H522; 48 h): 20 µM | GI50 (M14): 7.5 µM | GI50 (SKOV-3): 4 µM | GI50 (DU145; 48 h): 20 µM | GI50 (A498): 0.1 µM | Percentage reduction TG ([1]; 250 mg/kg orally for 6 days): 19% | Percent Inhibition (HIV-1/MN; 0.1 μM): 75.31% | Percent Inhibition (HIV-1/MN; 1 μM): 77.25% | Stimulation Index (SI) (Human lymphocytes): 32

CCC(=O)OC[C@@]1(C)C2CC[C@]3(CO3)C(C/C=C3/C(=O)OC[C@H]3OC(=O)/C=C/c3ccccc3)[C@@]2(C)CC[C@H]1OC(=O)CC (stereo partly drawn) [Example-8, 14-CINNAMOYL 3,19-DIPROPIONYL 8,17-EPOXY ANDROGRAPHOLIDE]
GI50 (MCF-7/ADR; Homo sapiens, NCI/ADR-RES): 0.08 µM | GI50 (U251; Homo sapiens, U-251, 48 h): 6 µM | GI50 (SW-620; Homo sapiens): 2.5 µM | GI50 (H522; Homo sapiens, NCI-H522, 48 h): 20 µM | GI50 (M14; Homo sapiens): 2.5 µM | GI50 (SKOV-3; Homo sapiens, SK-OV-3): 10 µM | GI50 (DU145; Homo sapiens, DU-145, 48 h): 4 µM | GI50 (A498; Homo sapiens): 3 µM

C=C1CC[C@@H]2[C@](C)(CO)[C@H](O)CC[C@@]2(C)[C@@H]1C/C=C1/C(=O)OC[C@H]1O [Andrographolide]
cytotoxic activity against KB (KB): potent cytotoxic activity | cytotoxic activity against P388 [2]: potent cytotoxic activity

CCC(=O)OC[C@]1(C)C(OC(=O)CC)CC[C@]2(C)C(C/C=C3/C(=O)OCC3OC(=O)/C=C/c3ccc(OC)cc3)[C@]3(CCC12)CO3 (stereo partly drawn) [Example-9, 14-[4′-METHOXYCINNAMOYL]3,19-DIPROPIONYL 8,17-EPOXY ANDROGRAPHOLIDE]
GI50 (MCF-7/ADR; Homo sapiens, NCI/ADR-RES): 3 µM | GI50 (U251; Homo sapiens, U-251, 48 h): 3 µM | GI50 (SW-620; Homo sapiens): 0.6 µM | GI50 (H522; Homo sapiens, NCI-H522, 48 h): 4.8 µM | GI50 (M14; Homo sapiens): 0.75 µM | GI50 (SKOV-3; Homo sapiens, SK-OV-3): 2 µM | GI50 (DU145; Homo sapiens, DU-145, 48 h): 2 µM | GI50 (A498; Homo sapiens): 3 µM

C=C1CC[C@@H]2[C@](C)(CO[C@@H]3O[C@H](CO)[C@@H](O)[C@H](O)[C@H]3O)CCC[C@@]2(C)[C@@H]1CCC1=CCOC1=O [neoandrographolide]
cytotoxic activity in tumor cell lines (tumor cell lines): no cytotoxic activity

Dehydroandrographolide Succinic acid monoester [DASM]
minimal concentration inhibitory to HIV-1(IIIB) (HIV-1(IIIB)): 1.6 to 3.1 µg/mL

C[C@]12CC[C@@H](OC(=O)CCl)[C@@](C)(COC(=O)CCl)C1CC[C@]1(CO1)C2C/C=C1/C(=O)OC[C@H]1OC(=O)CCl (stereo partly drawn) [Example-4, 3,14,19-TRIS CHLORO ACETYL 8,17-EPOXY ANDROGRAPHOLIDE]
GI50 (MCF-7/ADR; Homo sapiens, NCI/ADR-RES): 0.8 µM | GI50 (U251; Homo sapiens, U-251, 48 h): 0.8 µM | GI50 (SW-620; Homo sapiens): 25 µM | GI50 (H522; Homo sapiens, NCI-H522, 48 h): 5.5 µM | GI50 (UACC62): 0.55 µM | GI50 (SKOV-3; Homo sapiens, SK-OV-3): 0.45 µM | GI50 (DU145; Homo sapiens, DU-145, 48 h): 4.5 µM | GI50 (A498; Homo sapiens): 15 µM

C[C@]12CC[C@@H](O)[C@@](C)(CO)C1CC[C@]1(CO1)C2C/C=C1/C(=O)OC[C@H]1OC(=O)/C=C/c1ccccc1 (stereo partly drawn) [Example-7, 14-CINNAMOYL 3,19-DIHYDROXY 8,17-EPOXY ANDROGRAPHOLIDE]
GI50 (MCF-7/ADR; Homo sapiens, NCI/ADR-RES): 2 µM | GI50 (U251; Homo sapiens, U-251, 48 h): 6 µM | GI50 (SW-620; Homo sapiens): 0.5 µM | GI50 (H522; Homo sapiens, NCI-H522, 48 h): 6 µM | GI50 (M14; Homo sapiens): 1 µM | GI50 (SKOV-3; Homo sapiens, SK-OV-3): 4 µM | GI50 (DU145; Homo sapiens, DU-145, 48 h): 5.5 µM | GI50 (A498; Homo sapiens): 9 µM | Percentage reduction Body weight ([1]; 100 mg/kg orally for 6 days): 29% | Percentage reduction TG ([1]; 100 mg/kg orally for 6 days): 42% | Percentage reduction Body weight ([1]; 250 mg/kg orally for 6 days): 13% | Percentage reduction TG ([1]; 250 mg/kg orally for 6 days): 52% | Percentage reduction TG ([1]; 500 mg/kg orally for 6 days): 62% | inhibition at 1 µM (HIV-1/MN): 68.4% | Stimulation Index (SI) (Human lymphocytes): 25

CCC(=O)OC[C@@]1(C)C2CC[C@]3(CO3)C(C/C=C3/C(=O)OC[C@H]3OC(=O)/C=C/c3ccc4c(c3)OCO4)[C@@]2(C)CC[C@H]1OC(=O)CC (stereo partly drawn) [Example 11, 14-[3′,4′-METHYLENEDIOXYCINNAMOYL]3,19-DIPROPIONYL 8,17-EPOXY ANDROGRAPHOLIDE]
melting point: 76.7 °C

C=C1CCC2[C@](C)(CC[C@@H](O)[C@@]2(C)CO)C1/C=C/C1=CCOC1=O (stereo partly drawn) [14-deoxy-11,12-didehydroandrographolide]
cytotoxic activity in tumor cell lines (tumor cell lines): no cytotoxic activity

CC1(C)OC[C@@]2(C)C3CCC4(CO4)C(C/C=C4/C(=O)OC[C@H]4O)[C@@]3(C)CC[C@H]2O1 (stereo partly drawn) [Example 5, 8,17-EPOXY ANDROGRAPHOLIDE 3,19-ACETONIDE]
melting point: 179 °C

CCC(=O)OC[C@@]1(C)C2CC[C@]3(CO3)C(C/C=C3/C(=O)OC[C@H]3OC(=O)/C=C/c3ccc(OC)c(OC)c3)[C@@]2(C)CC[C@H]1OC(=O)CC (stereo partly drawn) [Example-10, 8,17-EPOXY 14-[3′,4′-DIMETHOXYCINNAMOYL]3,19-DIPROPIONYL ANDROGRAPHOLIDE]
GI50 (MCF-7/ADR; Homo sapiens, NCI/ADR-RES): 1.5 µM | GI50 (U251; Homo sapiens, U-251, 48 h): 2 µM | GI50 (SW-620; Homo sapiens): 0.4 µM | GI50 (H522; Homo sapiens, NCI-H522, 48 h): 7.5 µM | GI50 (M14; Homo sapiens): 0.8 µM | GI50 (SKOV-3; Homo sapiens, SK-OV-3): 2.5 µM | GI50 (DU145; Homo sapiens, DU-145, 48 h): 2.5 µM | GI50 (A498; Homo sapiens): 3.5 µM

CCC(=O)OC[C@@]1(C)C2CC[C@]3(CO3)C(C/C=C3/C(=O)OC[C@H]3OC(=O)CNC(=O)OC(C)(C)C)[C@@]2(C)CC[C@H]1OC(=O)CC (stereo partly drawn) [Example-13, 14-[N-BOC GLYCINYL]3,19-DIPROPIONYL 8,17-EPOXY ANDROGRAPHOLIDE]
Percentage reduction TG ([1]; 250 mg/kg orally for 6 days): 31% | inhibition at 1 µM (HIV-1/MN): 73.9% | Stimulation Index (SI) (Human lymphocytes): 24
